The values below come from ChEMBL document CHEMBL4387762, “Multicomponent synthesis of α-acylamino and α-acyloxy amide derivatives of desmycosin and their activity against gram-negative bacteria” (2019).

What all share (type): functional
Assay [1] relates to Aliivibrio fischeri. The assay is described as follows: Antimicrobial activity against Aliivibrio fischeri DSM507 assessed as growth inhibition at 0.1 uM incubated for 24 hrs by luminescence based assay relative to control. The note with it: DSM507, 24 h, read-out: GI.
In assay [2] the test system is Aliivibrio fischeri. Put plainly: Antimicrobial activity against Aliivibrio fischeri DSM507 assessed as growth inhibition at 1 uM incubated for 24 hrs by luminescence based assay relative to control. Conditions: DSM507, 24 h, read-out: GI.
Assay [3] concerns Aliivibrio fischeri. The assay is described as follows: Antimicrobial activity against Aliivibrio fischeri DSM507 assessed as growth inhibition incubated for 24 hrs by luminescence based assay. Conditions: DSM507, 24 h.

Molecules are shown by their SMILES. ≈ marks a conversion by molar mass, not a printed value.

For the compound `CC[C@H]1OC(=O)C[C@@H](O)[C@H](C)[C@@H](O[C@@H]2O[C@H](C)[C@@H](O)[C@H](N(C)C)[C@H]2O)[C@@H](C[C@@H](C(=O)NC(C)(C)C)N(C)C(C)=O)C[C@@H](C)C(=O)/C=C/C(C)=C/[C@@H]1CO[C@H]1O[C@@H](C)[C@H](O)[C@H](OC)[C@@H]1OC`, in assay [1], the inhibition of growth at 0.1 µM was determined as 6%. Moreover, the inhibition of growth at 1 µM in assay [2] came out at 11%.
With `CC[C@H]1OC(=O)C[C@@H](O)[C@H](C)[C@@H](O[C@@H]2O[C@H](C)[C@@H](O)[C@H](N(C)C)[C@H]2O)[C@@H](C[C@H](C(=O)NC(C)(C)C)N(C)C(C)=O)C[C@@H](C)C(=O)/C=C/C(C)=C/[C@@H]1CO[C@H]1O[C@@H](C)[C@H](O)[C@H](OC)[C@@H]1OC`, the inhibition of growth at 0.1 µM in assay [1] amounted to 12%. The inhibition of growth at 1 µM in assay [2] amounted to 64%.
With `CC[C@@H](C)CN(C(=O)c1ccccc1)C(C[C@H]1C[C@@H](C)C(=O)/C=C/C(C)=C/[C@H](CO[C@H]2O[C@@H](C)[C@H](O)[C@H](OC)[C@@H]2OC)[C@@H](CC)OC(=O)C[C@@H](O)[C@H](C)[C@H]1O[C@@H]1O[C@H](C)[C@@H](O)[C@H](N(C)C)[C@H]1O)C(=O)NC(C)(C)C` (some centres undefined), the inhibition of growth at 0.1 µM in assay [1] was 25%. For the same compound, the inhibition of growth at 1 µM in assay [2] stood at 52%.
Taken in the same sequence, the figures for `CCCC(=O)OC(C[C@H]1C[C@@H](C)C(=O)/C=C/C(C)=C/[C@H](CO[C@H]2O[C@@H](C)[C@H](O)[C@H](OC)[C@@H]2OC)[C@@H](CC)OC(=O)C[C@@H](O)[C@H](C)[C@H]1O[C@@H]1O[C@H](C)[C@@H](O)[C@H](N(C)C)[C@H]1O)C(=O)NC(C)(C)C` (some centres undefined) were 58% and 90%.
As for `CC[C@H]1OC(=O)C[C@@H](O)[C@H](C)[C@@H](O[C@@H]2O[C@H](C)[C@@H](O)[C@H](N(C)C)[C@H]2O)[C@@H](CC=O)C[C@@H](C)C(=O)/C=C/C(C)=C/[C@@H]1CO[C@H]1O[C@@H](C)[C@H](O)[C@H](OC)[C@@H]1OC`, the MIC in assay [3] is 2 to 4 µM (≈ 1.54 to 3.09 µg/mL). Also, the inhibition of growth at 0.1 µM in assay [1] worked out at 57%. The inhibition of growth at 1 µM in assay [2] turned out to be 84%.
`CCCN(C(=O)c1ccccc1)C(C[C@H]1C[C@@H](C)C(=O)/C=C/C(C)=C/[C@H](CO[C@H]2O[C@@H](C)[C@H](O)[C@H](OC)[C@@H]2OC)[C@@H](CC)OC(=O)C[C@@H](O)[C@H](C)[C@H]1O[C@@H]1O[C@H](C)[C@@H](O)[C@H](N(C)C)[C@H]1O)C(=O)NC(C)(C)C` (mixture of isomers): in assay [1], the inhibition of growth at 0.1 µM came out at 16%. Also, the inhibition of growth at 1 µM in assay [2] is 41%.
As to `CC[C@H]1OC(=O)C[C@@H](O)[C@H](C)[C@@H](O[C@@H]2O[C@H](C)[C@@H](O)[C@H](N(C)C)[C@H]2O)[C@@H](CC(C(=O)NC(C)(C)C)N(C(=O)c2ccccc2)C(C)C)C[C@@H](C)C(=O)/C=C/C(C)=C/[C@@H]1CO[C@H]1O[C@@H](C)[C@H](O)[C@H](OC)[C@@H]1OC` (mixture of isomers), the inhibition of growth at 0.1 µM in assay [1] worked out at 54%. The inhibition of growth at 1 µM in assay [2] amounted to 79%.
Taken in the same sequence, the figures for `CCCC(=O)N(C)C(C[C@H]1C[C@@H](C)C(=O)/C=C/C(C)=C/[C@H](CO[C@H]2O[C@@H](C)[C@H](O)[C@H](OC)[C@@H]2OC)[C@@H](CC)OC(=O)C[C@@H](O)[C@H](C)[C@H]1O[C@@H]1O[C@H](C)[C@@H](O)[C@H](N(C)C)[C@H]1O)C(=O)NC(C)(C)C` (mixture of isomers) were 26% and 73%.
`CC[C@H]1OC(=O)C[C@@H](O)[C@H](C)[C@@H](O[C@@H]2O[C@H](C)[C@@H](O)[C@H](N(C)C)[C@H]2O)[C@@H](CC(C(=O)NC(C)(C)C)N(CCCCN=[N+]=[N-])C(=O)c2ccccc2)C[C@@H](C)C(=O)/C=C/C(C)=C/[C@@H]1CO[C@H]1O[C@@H](C)[C@H](O)[C@H](OC)[C@@H]1OC` (mixture of isomers): the inhibition of growth at 0.1 µM in assay [1] turned out to be 46%. Besides, the inhibition of growth at 1 µM in assay [2] was 64%.
For `CC[C@H]1OC(=O)C[C@@H](O)[C@H](C)[C@@H](O[C@@H]2O[C@H](C)[C@@H](O)[C@H](N(C)C)[C@H]2O)[C@@H](CC(C(=O)NC2CCCCC2)N(C(=O)c2ccccc2)C(C)C)C[C@@H](C)C(=O)/C=C/C(C)=C/[C@@H]1CO[C@H]1O[C@@H](C)[C@H](O)[C@H](OC)[C@@H]1OC` (mixture of isomers), the inhibition of growth at 0.1 µM in assay [1] is 21%. The inhibition of growth at 1 µM in assay [2] was 44%.
As to `CCC(=O)N(C(C)C)C(C[C@H]1C[C@@H](C)C(=O)/C=C/C(C)=C/[C@H](CO[C@H]2O[C@@H](C)[C@H](O)[C@H](OC)[C@@H]2OC)[C@@H](CC)OC(=O)C[C@@H](O)[C@H](C)[C@H]1O[C@@H]1O[C@H](C)[C@@H](O)[C@H](N(C)C)[C@H]1O)C(=O)NC(C)(C)C` (mixture of isomers), the inhibition of growth at 0.1 µM in assay [1] amounted to 38%. Also, the inhibition of growth at 1 µM in assay [2] is 71%.
Consider `CC[C@H]1OC(=O)C[C@@H](O)[C@H](C)[C@@H](O[C@@H]2O[C@H](C)[C@@H](O)[C@H](N(C)C)[C@H]2O)[C@@H](CC(C(=O)NC(C)(C)C)N(CCCNC(=O)OCc2ccccc2)C(=O)c2ccccc2)C[C@@H](C)C(=O)/C=C/C(C)=C/[C@@H]1CO[C@H]1O[C@@H](C)[C@H](O)[C@H](OC)[C@@H]1OC` (mixture of isomers), for which the inhibition of growth at 0.1 µM in assay [1] stood at 47%. In assay [2], the inhibition of growth at 1 µM was determined as 64%.
Consider `CC[C@H]1OC(=O)C[C@@H](O)[C@H](C)[C@@H](O[C@@H]2O[C@H](C)[C@@H](O)[C@H](N(C)C)[C@H]2O)[C@@H](CC(OC(=O)c2ccccc2)C(=O)NC(C)(C)C)C[C@@H](C)C(=O)/C=C/C(C)=C/[C@@H]1CO[C@H]1O[C@@H](C)[C@H](O)[C@H](OC)[C@@H]1OC` (mixture of isomers), for which the inhibition of growth at 0.1 µM in assay [1] amounted to 18%. Further, in assay [2], the inhibition of growth at 1 µM stood at 52%.
Taken in the same sequence, the figures for `CC[C@H]1OC(=O)C[C@@H](O)[C@H](C)[C@@H](O[C@@H]2O[C@H](C)[C@@H](O)[C@H](N(C)C)[C@H]2O)[C@@H](CC(C(=O)NC(C)(C)C)N(C(=O)c2ccccc2)c2ccccc2)C[C@@H](C)C(=O)/C=C/C(C)=C/[C@@H]1CO[C@H]1O[C@@H](C)[C@H](O)[C@H](OC)[C@@H]1OC` (mixture of isomers) were 22% and 36%.
With `CC[C@H]1OC(=O)C[C@@H](O)[C@H](C)[C@@H](O[C@@H]2O[C@H](C)[C@@H](O)[C@H](N(C)C)[C@H]2O)[C@@H](CC(C(=O)NC(C)(C)C)N(CC)C(=O)c2ccccc2)C[C@@H](C)C(=O)/C=C/C(C)=C/[C@@H]1CO[C@H]1O[C@@H](C)[C@H](O)[C@H](OC)[C@@H]1OC` (mixture of isomers), the inhibition of growth at 0.1 µM in assay [1] came out at 11%. Also, the inhibition of growth at 1 µM in assay [2] stood at 20%.
Taken in the same sequence, the figures for `CC[C@H]1OC(=O)C[C@@H](O)[C@H](C)[C@@H](O[C@@H]2O[C@H](C)[C@@H](O)[C@H](N(C)C)[C@H]2O)[C@@H](CC(C(=O)NC(C)(C)C)N(CCCCN)C(=O)c2ccccc2)C[C@@H](C)C(=O)/C=C/C(C)=C/[C@@H]1CO[C@H]1O[C@@H](C)[C@H](O)[C@H](OC)[C@@H]1OC` (mixture of isomers) were 6% and 36%.
With `CC[C@H]1OC(=O)C[C@@H](O)[C@H](C)[C@@H](O[C@@H]2O[C@H](C)[C@@H](O)[C@H](N(C)C)[C@H]2O)[C@@H](CC(C(=O)NC(C)(C)C)N(CCNC(=O)OC(C)(C)C)C(=O)c2ccccc2)C[C@@H](C)C(=O)/C=C/C(C)=C/[C@@H]1CO[C@H]1O[C@@H](C)[C@H](O)[C@H](OC)[C@@H]1OC` (mixture of isomers), in assay [1], the inhibition of growth at 0.1 µM is 34%. In addition, the inhibition of growth at 1 µM in assay [2] was 56%.
For the compound `CCCCNC(=O)C(C[C@H]1C[C@@H](C)C(=O)/C=C/C(C)=C/[C@H](CO[C@H]2O[C@@H](C)[C@H](O)[C@H](OC)[C@@H]2OC)[C@@H](CC)OC(=O)C[C@@H](O)[C@H](C)[C@H]1O[C@@H]1O[C@H](C)[C@@H](O)[C@H](N(C)C)[C@H]1O)N(C)C(=O)CCC` (mixture of isomers), the inhibition of growth at 0.1 µM in assay [1] turned out to be 15%. Moreover, the inhibition of growth at 1 µM in assay [2] stood at 62%.
Turning to `CCCCNC(=O)C(C[C@H]1C[C@@H](C)C(=O)/C=C/C(C)=C/[C@H](CO[C@H]2O[C@@H](C)[C@H](O)[C@H](OC)[C@@H]2OC)[C@@H](CC)OC(=O)C[C@@H](O)[C@H](C)[C@H]1O[C@@H]1O[C@H](C)[C@@H](O)[C@H](N(C)C)[C@H]1O)N(C(=O)c1ccccc1)C(C)C` (mixture of isomers), the inhibition of growth at 0.1 µM in assay [1] is 31%. Further, the inhibition of growth at 1 µM in assay [2] was 57%.
As for `CCCC(=O)N(C(C)C)C(C[C@H]1C[C@@H](C)C(=O)/C=C/C(C)=C/[C@H](CO[C@H]2O[C@@H](C)[C@H](O)[C@H](OC)[C@@H]2OC)[C@@H](CC)OC(=O)C[C@@H](O)[C@H](C)[C@H]1O[C@@H]1O[C@H](C)[C@@H](O)[C@H](N(C)C)[C@H]1O)C(=O)NC(C)(C)C` (mixture of isomers), in assay [1], the inhibition of growth at 0.1 µM was 43%. For the same compound, the inhibition of growth at 1 µM in assay [2] is 83%.
For the compound `CC[C@H]1OC(=O)C[C@@H](O)[C@H](C)[C@@H](O[C@@H]2O[C@H](C)[C@@H](O)[C@H](N(C)C)[C@H]2O)[C@@H](CC(C(=O)NC(C)(C)C)N(C)C(=O)c2ccccc2)C[C@@H](C)C(=O)/C=C/C(C)=C/[C@@H]1CO[C@H]1O[C@@H](C)[C@H](O)[C@H](OC)[C@@H]1OC` (mixture of isomers), the inhibition of growth at 0.1 µM in assay [1] is 69%. In addition, the inhibition of growth at 1 µM in assay [2] came to 99%.
`CC[C@H]1OC(=O)C[C@@H](O)[C@H](C)[C@@H](O[C@@H]2O[C@H](C)[C@@H](O)[C@H](N(C)C)[C@H]2O)[C@@H](CC(C(=O)NC(C)(C)C)N(C)C(=O)c2ccccc2)C[C@@H](C)C(=O)/C=C/C(C)=C/[C@@H]1CO[C@H]1O[C@@H](C)[C@H](O)[C@H](OC)[C@@H]1OC` (single isomer, unassigned): the MIC in assay [3] lay within 2 to 4 µM (≈ 1.98 to 3.96 µg/mL).

By MIC is commonly meant the lowest concentration that inhibits growth of the organism.
